Target: human adenosine A2a receptor (Homo sapiens, UniProt P29274)
Assay: Adenosine A2a receptor whole cell cyclic AMP assay
Conditions: for IC50: HEK293 cells stably expressing human A2a, 1 hour compound treatment; for inhibition at 10 µM: HEK293, 1 h, read-out: A2a @ 100 μM Adenosine (A2a cAMP IC50)
[1] = A2a @ 1 μM Adenosine (A2a cAMP IC50), 1 μM adenosine
[2] = A2a @ 100 μM Adenosine (A2a cAMP IC50), 100 μM adenosine

Chain of human adenosine A2a receptor (P29274 whole entry): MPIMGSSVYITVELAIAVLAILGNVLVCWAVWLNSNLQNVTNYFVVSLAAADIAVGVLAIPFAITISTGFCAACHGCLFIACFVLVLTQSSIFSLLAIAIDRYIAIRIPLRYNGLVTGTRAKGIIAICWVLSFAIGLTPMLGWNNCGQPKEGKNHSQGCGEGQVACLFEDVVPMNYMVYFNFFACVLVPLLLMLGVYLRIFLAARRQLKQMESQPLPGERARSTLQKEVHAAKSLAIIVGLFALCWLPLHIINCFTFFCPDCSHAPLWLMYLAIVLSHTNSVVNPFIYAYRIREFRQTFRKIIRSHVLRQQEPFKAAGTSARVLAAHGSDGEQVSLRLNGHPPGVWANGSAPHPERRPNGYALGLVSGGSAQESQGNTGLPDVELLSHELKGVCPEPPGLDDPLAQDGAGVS

IC50 [1] [nM]	inhibition at 10 µM [%]	IC50 [2] [nM]	SMILES
100 to 1000	–	–	Cc1cc(-c2c(-c3ccc(F)cc3)nc(N)c3nnnn23)cc(Cl)n1 [1-1, 5-(2-chloro-6-methylpyridin-4-yl)-6-(4-fluorophenyl)tetrazolo[1,5-a]pyrazin-8-amine]
> 1000	–	–	Cc1cc(-c2nc(N)c3nnnn3c2-c2ccc(F)cc2)cc(Cl)n1 [1-2, 6-(2-chloro-6-methylpyridin-4-yl)-5-(4-fluorophenyl)tetrazolo[1,5-a]pyrazin-8-amine]
> 1000	–	–	Cc1cc(Cl)cc(-c2c(-c3ccc(F)cc3)nc(N)c3nnnn23)c1 [1-3, 5-(3-chloro-5-methylphenyl)-6-(4-fluorophenyl)tetrazolo[1,5-a]pyrazin-8-amine]
> 1000	–	–	Cn1cc(-c2c(-c3ccc(F)cc3)nc(N)c3nnnn23)ccc1=O [1-4, 5-(8-amino-6-(4-fluorophenyl)tetrazolo[1,5-a]pyrazin-5-yl)-1-methylpyridin-2(1H)-one]
100 to 1000	–	–	COc1cc(-c2c(-c3ccc(F)cc3)nc(N)c3nnnn23)cc2cccnc12 [1-5, 6-(4-fluorophenyl)-5-(8-methoxyquinolin-6-yl)tetrazolo[1,5-a]pyrazin-8-amine]
> 1000	–	–	Nc1nc(-c2ccc(F)cc2)c(-c2ccc3ncnn3c2)n2nnnc12 [1-8, 5-([1,2,4]triazolo[1,5-a]pyridin-6-yl)-6-(4-fluorophenyl)tetrazolo[1,5-a]pyrazin-8-amine]
100 to 1000	< 25	–	Nc1nc(-c2ccc(F)cc2)c(-c2ccc3nccn3c2)n2nnnc12 [1-9, 6-(4-fluorophenyl)-5-(imidazo[1,2-a]pyridin-6-yl)tetrazolo[1,5-a]pyrazin-8-amine]
100 to 1000	–	–	Nc1nc(-c2ccc(F)cc2)c(-c2ccc3ncoc3c2)n2nnnc12 [1-10, 5-(benzo[d]oxazol-6-yl)-6-(4-fluorophenyl)tetrazolo[1,5-a]pyrazin-8-amine]
< 100	< 25	–	Nc1nc(-c2ccc(F)cc2)c(-c2ccc3ncccc3c2)n2nnnc12 [1-11, 6-(4-fluorophenyl)-5-(quinolin-6-yl)tetrazolo[1,5-a]pyrazin-8-amine]
100 to 1000	< 25	–	Nc1nc(-c2ccc(F)cc2)c(-c2ccc3ncsc3c2)n2nnnc12 [1-12, 5-(benzo[d]thiazol-6-yl)-6-(4-fluorophenyl)tetrazolo[1,5-a]pyrazin-8-amine]
100 to 1000	< 25	–	Nc1nc(-c2ccc(F)cc2)c(-c2cc(F)c3nccn3c2)n2nnnc12 [1-14, 5-(8-fluoroimidazo[1,2-a]pyridin-6-yl)-6-(4-fluorophenyl)tetrazolo[1,5-a]pyrazin-8-amine]
100 to 1000	< 25	–	Nc1nc(-c2ccc(F)cc2)c(-c2ccc3ncncc3c2)n2nnnc12 [1-15, 6-(4-fluorophenyl)-5-(quinazolin-6-yl)tetrazolo[1,5-a]pyrazin-8-amine]
100 to 1000	< 25	–	Nc1nc(-c2ccc(F)cc2)c(-c2cc3cnccc3s2)n2nnnc12 [1-16, 6-(4-fluorophenyl)-5-(thieno[3,2-c]pyridin-2-yl)tetrazolo[1,5-a]pyrazin-8-amine]
100 to 1000	< 25	–	Nc1nc(-c2ccc(F)cc2)c(-c2cc(Cl)c3nccn3c2)n2nnnc12 [1-17, 5-(8-chloroimidazo[1,2-a]pyridin-6-yl)-6-(4-fluorophenyl)tetrazolo[1,5-a]pyrazin-8-amine]
> 1000	< 25	–	Cc1nc2ccc(-c3c(-c4ccc(F)cc4)nc(N)c4nnnn34)cn2n1 [1-18, 6-(4-fluorophenyl)-5-(2-methyl-[1,2,4]triazolo[1,5-a]pyridin-6-yl)tetrazolo[1,5-a]pyrazin-8-amine]
100 to 1000	–	> 1000	Nc1nc(-c2ccc(F)cc2)c(-c2cc(F)c3ncccc3c2)n2nnnc12 [1-19, 6-(4-fluorophenyl)-5-(8-fluoroquinolin-6-yl)tetrazolo[1,5-a]pyrazin-8-amine]
> 1000	< 25	–	Cc1cn2cc(-c3c(-c4ccc(F)cc4)nc(N)c4nnnn34)cc(F)c2n1 [1-21, 5-(8-fluoro-2-methylimidazo[1,2-a]pyridin-6-yl)-6-(4-fluorophenyl)tetrazolo[1,5-a]pyrazin-8-amine]
< 100	< 25	–	N#Cc1cnc2ccc(-c3c(-c4ccc(F)cc4)nc(N)c4nnnn34)cn12 [1-22, 6-(8-amino-6-(4-fluorophenyl)tetrazolo[1,5-a]pyrazin-5-yl)imidazo[1,2-a]pyridine-3-carbonitrile]
< 100	–	–	Nc1nc(-c2ccc(F)cc2)c(-c2ccc3ncc(Cl)n3c2)n2nnnc12 [1-23, 5-(3-chloroimidazo[1,2-a]pyridin-6-yl)-6-(4-fluorophenyl)tetrazolo[1,5-a]pyrazin-8-amine]
100 to 1000	–	100 to 1000	Cc1cnc2c(Cl)cc(-c3c(-c4ccc(F)cc4)nc(N)c4nnnn34)cn12 [1-24, 5-(8-chloro-3-methylimidazo[1,2-a]pyridin-6-yl)-6-(4-fluorophenyl)tetrazolo[1,5-a]pyrazin-8-amine]
100 to 1000	–	–	Cc1cc(-c2c(-c3ccccc3F)nc(N)c3nnnn23)cc(Cl)n1 [1-26, 5-(2-chloro-6-methylpyridin-4-yl)-6-(2-fluorophenyl)tetrazolo[1,5-a]pyrazin-8-amine]

IC50 [1] [nM]	inhibition at 10 µM [%]	IC50 [2] [nM]	SMILES
100 to 1000	–	–	Cc1cc(-c2c(-c3cccc(F)c3)nc(N)c3nnnn23)cc(Cl)n1 [1-27, 5-(2-chloro-6-methylpyridin-4-yl)-6-(3-fluorophenyl)tetrazolo[1,5-a]pyrazin-8-amine]
< 100	< 25	–	Cc1cc(-c2c(-c3ccc(F)cc3)nc(N)n3nnnc23)cc(C)n1 [1-28, 8-(2,6-dimethylpyridin-4-yl)-7-(4-fluorophenyl)tetrazolo[1,5-c]pyrimidin-5-amine]
100 to 1000	–	–	Cn1cc(-c2c(-c3ccc(F)cc3)nc(N)n3nnnc23)ccc1=O [1-29, 5-(5-amino-7-(4-fluorophenyl)tetrazolo[1,5-c]pyrimidin-8-yl)-1-methylpyridin-2(1H)-one]
< 100	–	–	Cn1cnc2ccc(-c3c(-c4ccc(F)cc4)nc(N)n4nnnc34)cc21 [1-30, 7-(4-fluorophenyl)-8-(1-methyl-1H-benzo[d]imidazol-6-yl)tetrazolo[1,5-c]pyrimidin-5-amine]
100 to 1000	–	–	Cc1ccnc2ccc(-c3c(-c4cccc(C#N)c4)nc(N)c4nnnn34)cc12 [1-31, 3-(8-amino-5-(4-methylquinolin-6-yl)tetrazolo[1,5-a]pyrazin-6-yl)benzonitrile]
100 to 1000	–	–	Cc1cc(-c2c(-c3ccccc3)nc(N)c3nnnn23)cc(Cl)n1 [1-32, 5-(2-chloro-6-methylpyridin-4-yl)-6-phenyltetrazolo[1,5-a]pyrazin-8-amine]
100 to 1000	–	–	Cc1cc(-c2c(-c3ccc(F)cc3)nc(N)n3nnnc23)cc(Cl)n1 [1-33, 8-(2-chloro-6-methylpyridin-4-yl)-7-(4-fluorophenyl)tetrazolo[1,5-c]pyrimidin-5-amine]
< 100	–	–	Nc1nc(-c2ccc(F)cc2)c(-c2ccc3nccc(Cl)c3c2)c2nnnn12 [1-35, 8-(4-chloroquinolin-6-yl)-7-(4-fluorophenyl)tetrazolo[1,5-c]pyrimidin-5-amine]
100 to 1000	–	–	Nc1nc(-c2ccc(F)cc2)c(-c2ccc3ncccc3c2)c2nnnn12 [1-37, 7-(4-fluorophenyl)-8-(quinolin-6-yl)tetrazolo[1,5-c]pyrimidin-5-amine]
100 to 1000	–	–	N#Cc1cc(-c2c(-c3ccc(F)cc3)nc(N)n3nnnc23)cc(Cl)n1 [1-41, 4-(5-amino-7-(4-fluorophenyl)tetrazolo[1,5-c]pyrimidin-8-yl)-6-chloropicolinonitrile]
100 to 1000	–	–	Nc1nc(-c2ccc(F)cc2)c(-c2ccc3nc[nH]c3c2)c2nnnn12 [1-42, 8-(1H-benzo[d]imidazol-6-yl)-7-(4-fluorophenyl)tetrazolo[1,5-c]pyrimidin-5-amine]
< 100	–	–	Cc1ccnc2ccc(-c3c(-c4ccc(C#N)cc4)nc(N)c4nnnn34)cc12 [1-44, 4-(8-amino-5-(4-methylquinolin-6-yl)tetrazolo[1,5-a]pyrazin-6-yl)benzonitrile]
100 to 1000	–	–	Cc1ccnc2ccc(-c3c(-c4ccccc4Cl)nc(N)c4nnnn34)cc12 [1-45, 6-(2-chlorophenyl)-5-(4-methylquinolin-6-yl)tetrazolo[1,5-a]pyrazin-8-amine]
100 to 1000	–	–	Cc1ccnc2ccc(-c3c(-c4ccncc4)nc(N)c4nnnn34)cc12 [1-46, 5-(4-methylquinolin-6-yl)-6-(pyridin-4-yl)tetrazolo[1,5-a]pyrazin-8-amine]
100 to 1000	–	–	Cc1ccnc2ccc(-c3c(-c4cccnc4)nc(N)c4nnnn34)cc12 [1-47, 5-(4-methylquinolin-6-yl)-6-(pyridin-3-yl)tetrazolo[1,5-a]pyrazin-8-amine]
100 to 1000	–	–	Cc1ccnc2ccc(-c3c(-c4ccccc4C#N)nc(N)c4nnnn34)cc12 [1-49, 2-(8-amino-5-(4-methylquinolin-6-yl)tetrazolo[1,5-a]pyrazin-6-yl)benzonitrile]
100 to 1000	–	–	Cc1cnc2ccc(-c3c(-c4ccc(C#N)cc4)nc(N)c4nnnn34)cn12 [1-51, 4-(8-amino-5-(3-methylimidazo[1,2-a]pyridin-6-yl)tetrazolo[1,5-a]pyrazin-6-yl)benzonitrile]
100 to 1000	–	–	Cn1cnc2ccc(-c3c(-c4ccc(C#N)cc4)nc(N)n4nnnc34)cc21 [1-52, 4-(5-amino-8-(1-methyl-1H-benzo[d]imidazol-6-yl)tetrazolo[1,5-c]pyrimidin-7-yl)benzonitrile]
< 100	< 25	–	COc1ccc(-c2nc(N)c3nnnn3c2-c2ccc3ncn(C)c3c2)cc1 [1-53, 6-(4-methoxyphenyl)-5-(1-methyl-1H-benzo[d]imidazol-6-yl)tetrazolo[1,5-a]pyrazin-8-amine]
100 to 1000	< 25	–	Cc1cc(-c2c(-c3ccc(F)cc3)nc(N)c3nnnn23)cc(C(F)F)n1 [1-54, 5-(2-(difluoromethyl)-6-methylpyridin-4-yl)-6-(4-fluorophenyl)tetrazolo[1,5-a]pyrazin-8-amine]

Source: patent US12065444B2, “Substituted tetrazolo[1,5-a]pyrazines and tetrazolo[1,5-c]pyrimidines as adenosine receptor antagonists” (Crossignal Therapeutics, Inc., priority 2021, dated 2024)
